Assay results reported in patent US20240158446A1, “CYCLIC COMPOUND HAVING SELECTIVE INHIBITORY ACTION ON KRAS OVER HRAS AND NRAS” (CHUGAI SEIYAKU KABUSHIKI KAISHA, priority 2021, published 2024).
Like-named read-outs stand apart in the source and are kept apart here. *1 amine or outer side, *2 acyl side, *3 side chain or, on linkers, in order; H or OH if unused. Where a SMILES comes first, the peptide text is derived from it. Bridges are numbered along the chain shown (N, C = ends). [ ]: non-standard residue; d: D form. The star is where a group is joined. hPhe(3-Cl-4-CF3) = N[C@@H](CCc1ccc(C(F)(F)F)c(Cl)c1)C(=O)O; NPrPhe(4-CF3) = CCCN[C@@H](Cc1ccc(C(F)(F)F)cc1)C(=O)O; X46 = CCCCN([C@@H](Cc1ccc(C)cc1)C(=O)[*:2])[*:1]; NMeGly(cPent) = CN[C@H](C(=O)O)C1CCCC1; Pro(4,4-F2) = O=C(O)[C@@H]1CC(F)(F)CN1; Hyp = O=C(O)[C@@H]1C[C@@H](O)CN1; NMeD = CN[C@@H](CC(=O)O)C(=O)O; NMeL = CN[C@@H](CC(C)C)C(=O)O; NMeNva = CCC[C@H](NC)C(=O)O; Morpholide = C1CN(*)CCO1; NMeA = CN[C@@H](C)C(=O)O; Ac5c = NC1(C(=O)O)CCCC1; Aze = O=C(O)[C@@H]1CCN1; Ac4c = NC1(C(=O)O)CCC1; NPrGly = CCCNCC(=O)O; Sar = CNCC(=O)O

Tests used:
[1] = molecular target: GDP-bound KRAS wild-type protein (Homo sapiens, UniProt P01116); experiment: Binding to KRAS by surface plasmon resonance (SPR), Single Cycle Kinetics; conditions: GDP-bound KRAS wild-type protein, read-out: KRAS KD
GDP-bound KRAS wild-type protein, sequence (P01116 whole entry): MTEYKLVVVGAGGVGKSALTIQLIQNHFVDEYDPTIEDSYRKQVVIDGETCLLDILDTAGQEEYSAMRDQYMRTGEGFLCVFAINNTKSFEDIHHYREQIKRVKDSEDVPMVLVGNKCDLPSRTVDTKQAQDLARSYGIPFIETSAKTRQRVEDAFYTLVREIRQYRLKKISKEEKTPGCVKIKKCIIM

[2] = molecular target: GDP-bound HRAS wild-type protein (Homo sapiens, UniProt P01112); experiment: Binding to HRAS by surface plasmon resonance (SPR), Single Cycle Kinetics; conditions: for HRAS/KRAS (ratio of KD value for HRAS to KD value for KRAS) / HRAS/KRAS (ratio of KD value with respect to HRAS to KD value with respect to KRAS): SPR, GDP-bound HRAS wild-type protein vs GDP-bound KRAS wild-type protein
GDP-bound HRAS wild-type protein, sequence (P01112 whole entry): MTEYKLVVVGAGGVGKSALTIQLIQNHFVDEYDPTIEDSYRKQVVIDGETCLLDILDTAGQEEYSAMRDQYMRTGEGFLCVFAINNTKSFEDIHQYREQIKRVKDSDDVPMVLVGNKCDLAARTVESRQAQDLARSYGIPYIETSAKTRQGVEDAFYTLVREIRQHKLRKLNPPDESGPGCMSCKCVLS

[3] = molecular target: GDP-bound NRAS wild-type protein (Homo sapiens, UniProt P01111); experiment: Binding to NRAS by surface plasmon resonance (SPR), Single Cycle Kinetics; conditions: for NRAS/KRAS (ratio of KD value for NRAS to KD value for KRAS) / NRAS/KRAS (ratio of KD value with respect to NRAS to KD value with respect to KRAS): SPR, GDP-bound NRAS wild-type protein vs GDP-bound KRAS wild-type protein
GDP-bound NRAS wild-type protein, sequence (P01111 whole entry): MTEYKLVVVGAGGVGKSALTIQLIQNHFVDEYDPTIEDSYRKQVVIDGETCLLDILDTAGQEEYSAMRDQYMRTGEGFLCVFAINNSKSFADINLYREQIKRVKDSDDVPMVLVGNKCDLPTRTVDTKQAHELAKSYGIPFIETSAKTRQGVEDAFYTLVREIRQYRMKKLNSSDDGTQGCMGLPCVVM

[4] = SPR Single Cycle Kinetics, 1:1 binding model

| Kd [1, 4] [nM] | SMILES | HRAS/KRAS (ratio of KD value for HRAS to KD value for KRAS) [2] | NRAS/KRAS (ratio of KD value for NRAS to KD value for KRAS) [3] | also measured |
| --- | --- | --- | --- | --- |
| 3.8 | CCCN1CC(=O)NC2(CCCC2)C(=O)N(C)[C@@H](C2CCCC2)C(=O)N(C)[C@H](C(=O)N2CCOCC2)CC(=O)N(C)[C@@H](CC(C)C)C(=O)N[C@@H]([C@@H](C)CC)C(=O)N2CC[C@H]2C(=O)N(C)CC(=O)N(CCC)[C@@H](Cc2ccc(C(F)(F)F)cc2)C(=O)N(C)CC(=O)N[C@@H](CCc2ccc(C(F)(F)F)c(Cl)c2)C1=O [PP0315] ([NMeL]I[Aze][Sar][NPrPhe(4-CF3)][Sar][hPhe(3-Cl-4-CF3)][NPrGly][Ac5c][NMeGly(cPent)][NMeD]-Morpholide; lactam N-11) | B (a compound having 3 or more and less than 10 is denoted as B) | B (a compound having 3 or more and less than 10 is denoted as B) | – |
| 0.12 | CCCN1C(=O)CN(C)C(=O)CNC(=O)[C@H]([C@@H](C)CC)NC(=O)[C@H](CC(C)C)N(C)C(=O)C[C@@H](C(=O)N2CCOCC2)N(C)C(=O)[C@H](C2CCCC2)N(C)C(=O)C2(CCC2)NC(=O)[C@@H]2C[C@@H](OCC)CN2C(=O)[C@H](CCc2ccc(C(F)(F)F)c(Cl)c2)NC(=O)CN(C)C(=O)[C@@H]1Cc1ccc(C(F)(F)F)cc1 [PP0397] ([NMeL]IG[Sar][NPrPhe(4-CF3)][Sar][hPhe(3-Cl-4-CF3)][Hyp](Et)[Ac4c][NMeGly(cPent)][NMeD]-Morpholide; lactam N-11) | C (A compound having a KD ratio of 0.1 or more and less than 3 is denoted as C) | C (A compound having a KD ratio of 0.1 or more and less than 3 is denoted as C) | – |
| – | CCO[C@@H]1C[C@H]2C(=O)NC3(CC(C)(C)C3)C(=O)N(C)[C@@H](C3CCCC3)C(=O)N3CCC[C@@H]3CC(=O)N(C)[C@@H](CC)C(=O)N[C@@H]([C@@H](C)CC)C(=O)N(C)CC(=O)N(C)[C@H]3C/C=C\CCN(C3=O)[C@@H](Cc3ccc(C(F)(F)F)cc3)C(=O)N(C)CC(=O)N[C@@H](CCc3cc(F)c(C(F)(F)F)c(F)c3)C(=O)N2C1 [PP1606] | – | – | Kd ([1]; SPR, Single Cycle Kinetics, 1:1 binding model): 0.37 nM; HRAS/KRAS (ratio of KD value for HRAS to KD value for KRAS) ([2]; KD ratio class): B (a compound having 3 or more and less than 10 is denoted as B); NRAS/KRAS (ratio of KD value for NRAS to KD value for KRAS) ([3]; KD ratio class): B (a compound having 3 or more and less than 10 is denoted as B) |
| 2.8 | CC[C@H](C)[C@@H]1NC(=O)[C@H](CC)N(C)C(=O)C[C@@H](C(=O)N2CCOCC2)N(C)C(=O)[C@H](C2CCCC2)N(C)C(=O)C2(CCCC2)NC(=O)[C@@H]2CCCN2C(=O)[C@H](CCc2cc(F)c(C(F)(F)F)c(F)c2)NC(=O)CN(C)C(=O)[C@H](Cc2ccc(C(F)(F)F)cc2)N2CCCCC[C@@H](C2=O)N(C)C(=O)CN(C)C1=O [PP0488] | – | – | HRAS/KRAS (ratio of KD value with respect to HRAS to KD value with respect to KRAS) [2]: B (a compound having 3 or more and less than 10 is denoted as B); NRAS/KRAS (ratio of KD value with respect to NRAS to KD value with respect to KRAS) [3]: A (a compound having 10 or more and less than 20 is denoted as A) |
| 0.11 | CCC[C@H]1C(=O)N[C@@H]([C@@H](C)CC)C(=O)N(C)[C@@H](C)C(=O)N2CC[C@H]2C(=O)N(CCC)[C@@H](Cc2ccc(C(F)(F)F)cc2)C(=O)N(C)CC(=O)N[C@@H](CCc2ccc(C(F)(F)F)c(Cl)c2)C(=O)N2CC(F)(F)C[C@H]2C(=O)NC2(CCCC2)C(=O)N(C)[C@@H](C2CCCC2)C(=O)N(C)[C@H](C(=O)N2CCOCC2)CC(=O)N1C [PP0205] ([NMeNva]I[NMeA][Aze][NPrPhe(4-CF3)][Sar][hPhe(3-Cl-4-CF3)][Pro(4,4-F2)][Ac5c][NMeGly(cPent)][NMeD]-Morpholide; lactam N-11) | C (A compound having a KD ratio of 0.1 or more and less than 3 is denoted as C) | C (A compound having a KD ratio of 0.1 or more and less than 3 is denoted as C) | – |
| 0.33 | CCC(CC)[C@@H]1NC(=O)[C@H](CC(C)C)N(C)C(=O)C[C@@H](C(=O)N2CCOCC2)N(C)C(=O)[C@H](C2CCCC2)N(C)C(=O)C2(CCCC2)NC(=O)[C@@H]2CCCN2C(=O)[C@H](CCc2cc(F)c(C(F)(F)F)c(F)c2)NC(=O)CN(C)C(=O)[C@H](Cc2ccc(C(F)(F)F)cc2)N2CCCC[C@@H](C2=O)N(C)C(=O)CN(C)C1=O [PP0597] | – | – | HRAS/KRAS (ratio of KD value with respect to HRAS to KD value with respect to KRAS) [2]: B (a compound having 3 or more and less than 10 is denoted as B); NRAS/KRAS (ratio of KD value with respect to NRAS to KD value with respect to KRAS) [3]: B (a compound having 3 or more and less than 10 is denoted as B) |
| 0.6 | CC[C@H](C)[C@@H]1NC(=O)[C@H](CC(C)C)N(C)C(=O)C[C@@H](C(=O)N2CCOCC2)N(C)C(=O)[C@H](C2CCCC2)N(C)C(=O)C2(CCCC2)NC(=O)[C@@H]2CCCN2C(=O)[C@H](CCc2ccc(C(F)(F)F)c(Cl)c2)NC(=O)CN(C)C(=O)[C@H](Cc2ccc(Cl)cc2)N2CCCCC[C@@H](C2=O)N(C)C(=O)CN(C)C1=O [PP0613] | – | – | HRAS/KRAS (ratio of KD value with respect to HRAS to KD value with respect to KRAS) [2]: B (a compound having 3 or more and less than 10 is denoted as B); NRAS/KRAS (ratio of KD value with respect to NRAS to KD value with respect to KRAS) [3]: B (a compound having 3 or more and less than 10 is denoted as B) |
| – | CCO[C@@H]1C[C@H]2C(=O)NC3(CCC3)C(=O)N(C)[C@@H](C3CCCC3)C(=O)N(C)[C@H](C(=O)N3CCOCC3)CC(=O)N(C)[C@@H](CC(C)C)C(=O)N[C@@H]([C@@H](C)CC)C(=O)N(C)CC(=O)N(C)[C@H]3CC=CCN(C3=O)[C@@H](Cc3ccc(C(F)(F)F)cc3)C(=O)N(C)CC(=O)N[C@@H](CCc3cc(F)c(C(F)(F)F)c(F)c3)C(=O)N2C1 [PP0832] | C (A compound having a KD ratio of 0.1 or more and less than 3 is denoted as C) | C (A compound having a KD ratio of 0.1 or more and less than 3 is denoted as C) | Kd ([1]; SPR, Single Cycle Kinetics): 0.21 nM |
| – | CCO[C@@H]1C[C@H]2C(=O)NC3(CC(C)(C)C3)C(=O)N(C)[C@@H](C(CC)CC)C(=O)N(C)[C@H](C(=O)N(C)C)CC(=O)N(C)[C@@H](CC3CCC3)C(=O)N[C@@H]([C@@H](C)CC)C(=O)N(C)CC(=O)N(C)[C@H]3C/C=C\CCN(C3=O)[C@@H](Cc3ccc(C)cc3)C(=O)N(C)CC(=O)N[C@@H](CCc3ccc(C(F)(F)F)c(OC)c3)C(=O)N2C1 [PP2172] | B (a compound having 3 or more and less than 10 is denoted as B) | A (a compound having 10 or more and less than 20 is denoted as A) | Kd ([1]; SPR, Single Cycle Kinetics): 0.51 nM |
| – | CCO[C@@H]1C[C@H]2C(=O)NC3(CCCC3)C(=O)N(C)[C@@H](C3CCCC3)C(=O)N(C)[C@H](C(=O)N(C)C)CC(=O)N(C)[C@@H](C)C(=O)N[C@@H]([C@@H](C)CC)C(=O)N(C)CC(=O)N(C)[C@H]3C/C=C\CCN(C3=O)[C@@H](Cc3ccc(C(F)(F)F)cc3)C(=O)N(C)CC(=O)N[C@@H](CCc3cc(F)c(C(F)(F)F)c(F)c3)C(=O)N2C1 [PP1104, (2S,8S,12R,14S,20S,23S,27S,30S,36S,38Z)-20-cyclopentyl-8-[2-[3,5-difluoro-4-(trifluoromethyl)phenyl]ethyl]-12-ethoxy-N,N,4,19,22,26,27,32,35-nonamethyl-30-[(1S)-1-methylpropyl]-3,6,9,15,18,21,25,28,31,34,42-undecaoxo-2-[[4-(trifluoromethyl)phenyl]methyl]spiro[1,4,7,10,16,19,22,26,29,32,35-undecazatricyclo[34.5.1.0^10,14]dotetracont-38-ene-17,1′-cyclopentane]-23-carboxamide] | A (a compound having 10 or more and less than 20 is denoted as A) | A (a compound having 10 or more and less than 20 is denoted as A) | Kd ([1]; SPR, Single Cycle Kinetics): 0.059 nM |
| 0.21 | CCCCN1C(=O)CN(C)C(=O)CN(C)C(=O)[C@H]([C@@H](C)CC)NC(=O)[C@H](CC(C)C)N(C)C(=O)C[C@@H](C(=O)N2CCOCC2)N(C)C(=O)[C@H](C2CCCC2)N(C)C(=O)C2(CCCC2)NC(=O)[C@@H]2CCCN2C(=O)[C@H](CCc2ccc(C(F)(F)F)c(Cl)c2)NC(=O)CN(C)C(=O)[C@@H]1Cc1ccc(C)cc1 [PP0062] ([NMeL]I[Sar][Sar][X46][Sar][hPhe(3-Cl-4-CF3)]P[Ac5c][NMeGly(cPent)][NMeD]-Morpholide; lactam N-11) | C (A compound having a KD ratio of 0.1 or more and less than 3 is denoted as C) | C (A compound having a KD ratio of 0.1 or more and less than 3 is denoted as C) | – |
| 1.3 | CCCN1C(=O)[C@@H]2CCN2C(=O)[C@H](C)N(C)C(=O)[C@H]([C@@H](C)CC)NC(=O)[C@H](CC(C)C)N(C)C(=O)C[C@@H](C(=O)N2CCOCC2)NC(=O)[C@H](C2CCCC2)N(C)C(=O)C2(CCCC2)NC(=O)[C@@H]2CCCN2C(=O)[C@H](CCc2ccc(C(F)(F)F)c(Cl)c2)NC(=O)CN(C)C(=O)[C@@H]1Cc1ccc(C(F)(F)F)cc1 [PP0343] ([NMeL]I[NMeA][Aze][NPrPhe(4-CF3)][Sar][hPhe(3-Cl-4-CF3)]P[Ac5c][NMeGly(cPent)]D-Morpholide; lactam N-11) | B (a compound having 3 or more and less than 10 is denoted as B) | C (A compound having a KD ratio of 0.1 or more and less than 3 is denoted as C) | – |
| 2.5 | CCO[C@@H]1C[C@H]2C(=O)NC3(CC(C)(C)C3)C(=O)N(C)[C@@H](CC3CCC3)C(=O)N(C)[C@H](C(=O)N(C)C)CC(=O)N(C)[C@@H](COC)C(=O)N[C@@H]([C@@H](C)CC)C(=O)N(C3CC3)CC(=O)N(C)[C@H]3C/C=C\CCN(C3=O)[C@@H](Cc3ccc(C(F)(F)F)cc3)C(=O)N(C)CC(=O)N[C@@H](CCc3cc(F)c(C(F)(F)F)c(F)c3)C(=O)N2C1 [PP2769] | – | – | HRAS/KRAS (ratio of KD value with respect to GDP-bound HRAS wild-type protein to KD value with respect to KRAS) ([2]; SPR KD ratio HRAS/KRAS, class symbols): A (a compound having 10 or more and less than 20 is denoted as A); NRAS/KRAS (ratio of KD value with respect to GDP-bound NRAS wild-type protein to KD value with respect to KRAS) ([3]; SPR KD ratio NRAS/KRAS, class symbols): AA (a compound having 20 or more is denoted as AA) |
